Results on 6 compounds are retold here after patent publication US9302999B2, “Substituted triazoles as herbicides” (E. I. DU PONT DE NEMOURS AND COMPANY, priority 2012, dated 2016).

What all share (type): in vivo
Assay [1] deals with barnyardgrass (Echinochloa crus-galli). In words: Test A pre-/postemergence: barnyardgrass. The settings on record: for pest or weed control at 125 g/ha / pest or weed control at 500 g/ha: Echinochloa crus-galli, 240 h. A digest of the protocol:
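Rating scale 0–100 (100 = complete control), visual, ~10 days after application in the greenhouse. Applications: preemergence directed soil spray; postemergence at 1–2 leaves.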

The next assay relates to kochia (Kochia scoparia). In words: Test C pre-/postemergence: kochia. An excerpt:
Seeds of plant species selected from blackgrass (Alopecurus myosuroides), bromegrass, downy (downy bromegrass, Bromus tectorum), foxtail, green (green foxtail, Setaria viridis), ryegrass, Italian (Italian ryegrass, Lolium multiflorum), winter wheat (Triticum aestivum), wild oat (Avena fatua), galium (catchweed bedstraw, Galium aparine), bermudagrass (Cynodon dactylon), surinam grass (Brachiaria decumbens), cocklebur (common cocklebur, Xanthium strumarium), corn (Zea mays), large crabgrass (Digitaria sanguinalis), woolly cupgrass (Eriochloa villosa), foxtail, giant (giant foxtail, Setaria faberii), goosegrass (Eleusine indica), johnsongrass (Sorghum halepense), kochia (Kochia scoparia), lambsquarters (Chenopodium album), morningglory (Ipomoea coccinea), nightshade (eastern black nightshade, Solanum ptycanthum), nutsedge, yellow (yellow nutsedge, Cyperus esculentus), pigweed (Amaranthus retroflexus), ragweed (common ragweed, Ambrosia elation), soybean (Glycine max), common (oilseed) sunflower (Helianthus annuus), Russian thistle (Salsola kali) and velvetleaf (Abutilon theophrasti) were planted into a blend of loam soil and sand and treated preemergence with test chemicals formulated in a non-phytotoxic solvent mixture which included a surfactant.
At the same time, plants selected from these crop and weed species and also barley (winter barley, Hordeum vulgare), canarygrass (Phalaris minor), chickweed (common chickweed, Stellaria media) windgrass (Apera spica-venti) and deadnettle (henbit deadnettle, Lamium amplexicaule) were planted in pots containing Redi-Earth® planting medium (Scotts Company, 14111 Scottslawn Road, Marysville, Ohio 43041) comprising spaghnum peat moss, vermiculite, wetting agent and starter nutrients and treated with postemergence applications of test chemicals formulated in the same manner. Plants ranged in height from 2 to 18 cm (1- to 4-leaf stage) for postemergence treatments.
Treated plants and controls were maintained in a greenhouse for 13 to 15 days, after which time all species were compared to controls and visually evaluated. Plant response ratings, summarized in Table C, are based on a scale of 0 to 100 where 0 is no effect and 100 is complete control. A dash (-) response means no test result.

Assay [2] has as its system ducksalad (Heteranthera limosa). In words: Test C flooded paddy test: ducksalad. As to conditions: Heteranthera limosa, scale 0 to 100 (0 no effect, 100 complete control), read-out: Plant response rating, Ducksalad. A digest of the protocol: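 2-leaf stage plants; pots flooded 3 cm above soil; compound applied into paddy water, depth maintained. Greenhouse 13–15 d. Visual rating vs controls, 0–100 (0 = no effect, 100 = complete control); dash = no result.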

In assay [3] the test system is foxtail, green (green foxtail, Setaria viridis). Kind of assay: Test D pre-/postemergence: foxtail, green. The source says: Seeds of plant species selected from bluegrass (annual bluegrass, Poa annua), blackgrass (Alopecurus myosuroides), canarygrass (Phalaris minor), chickweed (common chickweed, Stellaria media), galium (catchweed bedstraw, Galium aparine), bromegrass, downy (downy bromegrass, Bromus tectorum), field poppy (Papaver rhoeas), field violet (Viola arvensis), foxtail, green (green foxtail, Setaria viridis), deadnettle (henbit deadnettle, Lamium amplexicaule), ryegrass, Italian (Italian ryegrass, Lolium multiflorum), kochia (Kochia scoparia), lambsquarters (Chenopodium album), oilseed rape (Brassica napus), pigweed (Amaranthus retroflexus), Russian thistle (Salsola iberica), chamomile (scentless chamomile, Matricaria inodora), speedwell (bird's-eye speedwell, Veronica persica), barley, spring (spring barley, Hordeum vulgare), wheat, spring (spring wheat, Triticum aestivum), buckwheat, wild (wild buckwheat, Polygonum convolvulus), mustard, wild (wild mustard, Sinapis arvensis), oat, wild (wild oat, Avena fatua), radish, wild (wild radish, Raphanus raphanistrum), windgrass (Apera spica-venti), barley, winter (winter barley, Hordeum vulgare), and wheat, winter (winter wheat, Triticum aestivum) were planted into a silt loam soil and treated preemergence with test chemicals formulated in a non-phytotoxic solvent mixture which included a surfactant. At the same time, these same crop and weed species were planted in pots containing the planting medium comprising spaghnum peat moss, vermiculite, wetting agent and starter nutrients and treated with postemergence applications of the test chemicals formulated in the same manner. Plants ranged in height from 2 to 18 cm (1- to 4-leaf stage).
Treated plants and controls were maintained in a controlled growth environment for 14 to 21 days after which time all species were compared to controls and visually evaluated. Plant response ratings, summarized in Table D, are based on a scale of 0 to 100 where 0 is no effect and 100 is complete control. A dash (-) response means no test result.

Another assay concerns rice (Oryza sativa). In words: Test B flooded paddy: rice. The settings on record: Flood, applied to paddy water at 2-leaf stage, visually evaluated after 13 to 15 days. An outline of the steps: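 At two leaves, seedlings received the test compound via the paddy water, pots having been flooded 3 cm over the soil surface and kept so. Greenhouse-held for 13 to 15 days, then judged by eye against controls on a scale running 0 (no effect) to 100 (complete control).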

Where [4] appears, read: Postemergence, 31 g ai/ha, scale 0 to 100 (0 no effect, 100 complete control).
Where [5] appears, read: Postemergence, 62 g ai/ha, scale 0 to 100 (0 no effect, 100 complete control).
[6] abbreviates: Postemergence, 125 g ai/ha, scale 0 to 100, 0 no effect, 100 complete control.
Where [7] appears, read: Postemergence, 250 g ai/ha, scale 0 to 100.
[8] abbreviates: Preemergence, 31 g ai/ha, scale of 0 to 100, 0 is no effect, 100 is complete control.
The mark [9] stands for this setting: Preemergence, 62 g ai/ha, scale of 0 to 100, 0 is no effect, 100 is complete control.
Where [10] appears, read: Preemergence, 125 g ai/ha, scale 0 to 100, 0 no effect, 100 complete control.
[11] abbreviates: Preemergence, 250 g ai/ha, scale 0 to 100, 0 no effect, 100 complete control.
Setting [12] is: Postemergence, 125 g ai/ha, 0 to 100 scale, 0 is no effect, 100 is complete control.
Setting [13] is: Postemergence, 500 g ai/ha, visual rating on 0 to 100 scale (0 no effect, 100 complete control), approximately ten days.
Where [14] appears, read: Preemergence, 125 g ai/ha, 0 to 100 scale where 0 is no effect and 100 is complete control.
The mark [15] stands for this setting: Preemergence, 500 g ai/ha, 0 to 100 scale (0 no effect, 100 complete control).
Where [16] appears, read: Postemergence, 500 g ai/ha, 0 to 100 scale, 0 is no effect, 100 is complete control.

Like-named read-outs stand apart in the source and are kept apart here.

For the compound `Cc1nn(-c2ccc(F)cc2)nc1Oc1ccnc(C(F)(F)F)c1` [Compound 129, 4-[[2-(4-fluorophenyl)-5-methyl-2H-1,2,3-triazol-4-yl]oxy]-2-(trifluoromethyl)pyridine], the pest or weed control at 125 g/ha in assay [1] (post-emergence, Postemergence, 125 g ai/ha, 0 to 100 scale, 0 is no effect, 100 is complete control, read-out: Barnyardgrass plant response rating) is 90%; in assay [1] (pre-emergence, Preemergence, 125 g ai/ha, 0 to 100 scale where 0 is no effect and 100 is complete control, read-out: Plant response rating, Barnyardgrass), 100%; in assay [2] (Flood (flooded paddy test), 125 g ai/ha, visual rating after 13 to 15 days), 80%. In addition, the pest or weed control at 500 g/ha in assay [1] (post-emergence, Postemergence, 500 g ai/ha, visual rating on 0 to 100 scale (0 no effect, 100 complete control), approximately ten days, read-out: Barnyardgrass plant response rating) was 90%; in assay [1] (pre-emergence, Preemergence, 500 g ai/ha, 0 to 100 scale (0 no effect, 100 complete control), read-out: Plant response rating, Barnyardgrass) it was 100%. The “Plant response rating, Kochia” value in the assay on kochia (Kochia scoparia) (setting [4]) came to 95; with kochia (Kochia scoparia) (setting [5]) it was 95; in the assay with kochia (Kochia scoparia) (setting [6]) it was 98; in the assay on kochia (Kochia scoparia) (setting [7]), 98; in the assay on kochia (Kochia scoparia) (setting [8]), 5; in the assay with kochia (Kochia scoparia) (setting [9]), 90. Also, the “Plant response rating, Kochia” value in the assay on kochia (Kochia scoparia) (setting [10]) is recorded as 90; in the assay on kochia (Kochia scoparia) (setting [11]) it was 95. In assay [2] (Flood (flooded paddy test), 250 g ai/ha, visual rating after 13 to 15 days), the pest or weed control at 250 g/ha came out at 90%. In assay [2] (Flood, 31 g ai/ha), the pest or weed control at 31 g/ha is 70%. In addition, in assay [2] (Flood, 62 g ai/ha), the pest or weed control at 62 g/ha turned out to be 75%. Also, the “Plant response rating: Foxtail, Green” value is on record as 35 in assay [3] (setting [4]); 85 in assay [3] (setting [5]); 95 in assay [3] (setting [6]); 100 in assay [3] (Postemergence, 250 g ai/ha, scale 0 to 100 (0 no effect, 100 complete control)). Further, the “Plant response rating, Foxtail, Green” value is reported as 35 in assay [3] (Postemergence, 16 g ai/ha, scale 0 to 100); 5 in assay [3] (Preemergence, 16 g ai/ha, scale 0 to 100 (0 no effect, 100 complete control)); 90 in assay [3] (Preemergence, 31 g ai/ha, scale 0 to 100 (0 no effect, 100 complete control)); 100 in assay [3] (Preemergence, 62 g ai/ha, scale 0 to 100); 100 in assay [3] (Preemergence, 125 g ai/ha, scale 0 to 100); 100 in assay [3] (Preemergence, 250 g ai/ha, scale 0 to 100).

With `Fc1ccc(-n2nc(Cc3ccnc(C(F)(F)F)c3)c(OCC(F)(F)F)n2)cc1` [Compound 142], the “Barnyardgrass plant response rating” value in assay [1] (setting [12]) and in assay [1] (setting [13]) was 100 throughout. Moreover, the “Plant response rating, Barnyardgrass” value in assay [1] (setting [14]) and in assay [1] (setting [15]) was 100 in each case. The “Plant response rating, Rice (0 to 100 scale, 0 is no effect, 100 is complete control)” value in the assay with rice (Oryza sativa) (250 g ai/ha) was 60. Further, the “Plant response rating, Kochia” value in the assay with kochia (Kochia scoparia) (setting [4]) came out at 80; in the assay with kochia (Kochia scoparia) (setting [5]) it was 90; in the assay on kochia (Kochia scoparia) (setting [6]), 95; in the assay with kochia (Kochia scoparia) (setting [7]), 95; in the assay with kochia (Kochia scoparia) (setting [8]) it was 55; in the assay on kochia (Kochia scoparia) (setting [9]) it was 80. For the same compound, the “Plant response rating, Kochia” value with kochia (Kochia scoparia) (setting [10]) came to 98; in the assay on kochia (Kochia scoparia) (setting [11]), 100.

For the compound `CCCc1nn(-c2ccc(F)cc2)nc1Cc1ccnc(C(F)(F)F)c1` [Compound 153], the “Plant response rating, Barnyardgrass” value was found to be 90 in assay [1] (setting [12]), 100 in assay [1] (setting [14]) and 100 in assay [1] (setting [15]). Further, the “Barnyardgrass plant response rating” value in assay [1] (setting [13]) worked out at 90. For the same compound, the “Plant response rating, Rice (0 to 100 scale, 0 is no effect, 100 is complete control)” value in the assay on rice (Oryza sativa) (250 g ai/ha) was found to be 60. Besides, the “Plant response rating, Kochia” value with kochia (Kochia scoparia) (setting [4]), in the assay with kochia (Kochia scoparia) (setting [5]), in the assay on kochia (Kochia scoparia) (setting [6]) and with kochia (Kochia scoparia) (setting [7]) was 90 each time.

Take `Cc1nn(-c2ccc(C(F)(F)F)c(F)c2)nc1Cc1ccnc(C(F)(F)F)c1` [Compound 162]: the “Plant response rating, Barnyardgrass” value in assay [1] (setting [12]) amounted to 80; in assay [1] (setting [14]), 90; in assay [1] (setting [15]), 100. Also, the “Barnyardgrass plant response rating” value in assay [1] (setting [13]) came out at 90. In addition, the “Plant response rating, Rice (0 to 100 scale, 0 is no effect, 100 is complete control)” value in the assay on rice (Oryza sativa) (125 g ai/ha) is recorded as 25. The “Plant response rating, Kochia” value came to 90 with kochia (Kochia scoparia) (setting [4]), 90 with kochia (Kochia scoparia) (setting [5]), 95 in the assay with kochia (Kochia scoparia) (setting [6]) and 95 in the assay with kochia (Kochia scoparia) (setting [7]).

In the case of `CCc1nn(-c2ccc(F)cc2)nc1Oc1ccnc(C(F)(F)F)c1` [Compound 166], the “Plant response rating, Barnyardgrass” value in assay [1] (setting [12]) was found to be 70; in assay [1] (setting [14]) it was 90; in assay [1] (setting [15]), 100. Further, the “Barnyardgrass plant response rating” value in assay [1] (setting [16]) is 90. Also, the “Plant response rating, Rice (0 to 100 scale, 0 is no effect, 100 is complete control)” value in the assay on rice (Oryza sativa) (125 g ai/ha) is reported as 80. Besides, the “Plant response rating, Kochia” value with kochia (Kochia scoparia) (setting [4]), in the assay on kochia (Kochia scoparia) (setting [5]), in the assay on kochia (Kochia scoparia) (setting [6]) and in the assay on kochia (Kochia scoparia) (setting [7]) was 90 each time.

`CCOc1nn(-c2ccc(Br)cc2)nc1Cc1ccnc(C(F)(F)F)c1` [Compound 189]: the “Plant response rating, Barnyardgrass” value in assay [1] (setting [12]) is on record as 60; in assay [1] (setting [14]) it was 80; in assay [1] (setting [15]), 90. In assay [1] (setting [16]), the “Barnyardgrass plant response rating” value is given as 80. Further, in the assay with rice (Oryza sativa) (125 g ai/ha), the “Plant response rating, Rice (0 to 100 scale, 0 is no effect, 100 is complete control)” value is reported as 35.
